The values that follow come from ChEMBL document CHEMBL1201862, “PubChem BioAssay data set” (2004).

Some test systems named below: HCT-15; NCI-H460; SF-295; TK-10; UACC-62; COLO 205; SW-620; EKVX; SF-268; M19-MEL; SNB-19; HT-29; OVCAR-8; M14; PC-3; DU-145; T47D; OVCAR-4; SK-MEL-5; A498.
What all share (assay): inhibition of tumour cell growth, NCI panel, 48 h

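How tested: cells in 96-well plates exposed to compound for 48 hours at five concentrations. Here, GI50 denotes the concentration required for 50% inhibition of growth.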 Activity calls are given as the source filed them. Cut-off read from the data, not from the text of the source: active = GI50 up to about 1.1 µM and inactive = higher. Some results are limits rather than exact numbers.

Take `COc1ccc(CNc2nc3ccc(C(F)(F)F)cc3nc2-c2ccccc2)cc1OC`: the GI50 in the assay with HCT-15 was 25.1 µM; with NCI-H460, 21.2 µM (inactive); with SF-295 it was 42.9 µM (inactive); in the assay with TK-10, 71.6 µM (inactive); with UACC-62 it was 30.1 µM (inactive); in the assay with COLO 205 it was 6.41 µM (inactive). The GI50 was > 100 µM (inactive) in the assay with SW-620; > 100 µM (inactive) in the assay on EKVX; 63.2 µM (inactive) with SF-268; > 100 µM (inactive) in the assay with M19-MEL; > 100 µM (inactive) with SNB-19; 61.5 µM (inactive) with HT-29. Also, the GI50 in the assay on OVCAR-8 was > 100 µM (inactive).

In the case of `O=C(O)CCc1c2ccc(=O)c(O)c-2oc2c(O)c(O)ccc12`, the GI50 with HCT-15 is 79.4 µM; in the assay on NCI-H460, > 100 µM (inactive); with M14 it was > 100 µM (inactive); in the assay with PC-3 it was > 100 µM (inactive); in the assay with DU-145 it was > 100 µM (inactive); with SF-295, 30.7 µM (inactive). Further, the GI50 in the assay on TK-10 is > 100 µM (inactive); in the assay on UACC-62, > 100 µM (inactive); in the assay with COLO 205, > 100 µM (inactive); with SW-620, 22.2 µM (inactive); in the assay with T47D, > 100 µM (inactive); in the assay on EKVX, 28.8 µM (inactive). Besides, the GI50 in the assay on SF-268 was 32.4 µM (inactive); with OVCAR-4, 46.2 µM (inactive); with SNB-19 it was > 100 µM (inactive); in the assay on HT-29 it was > 100 µM (inactive); in the assay on SK-MEL-5, > 100 µM (inactive); in the assay with OVCAR-8, 54.6 µM (inactive). Moreover, the GI50 in the assay on A498 is 46.7 µM (inactive).

As for `CN1C(=O)N/C(=C\c2ccc(S(=O)(=O)N/N=C\C(O)C(O)C(O)CO)cc2)C1=O` (stereo not given), the GI50 with HCT-15 is greater than 100 µM; with NCI-H460, > 100 µM (inactive); in the assay with M14, > 100 µM (inactive); in the assay on PC-3, > 100 µM (inactive); with DU-145, > 100 µM (inactive); in the assay with SF-295, > 100 µM (inactive). The GI50 in the assay with TK-10, in the assay with UACC-62, in the assay with COLO 205, in the assay with SW-620, with T47D and with EKVX was > 100 µM (inactive) throughout. Moreover, the GI50 with SF-268, in the assay on OVCAR-4, in the assay on SNB-19, in the assay with HT-29, with SK-MEL-5 and in the assay with OVCAR-8 was > 100 µM (inactive) throughout. The GI50 with A498 was > 100 µM (inactive).

For `CC(C)(C)OC(=O)NC1CC2(C=C(Br)C(=O)C(Br)=C2)OC1=O` (stereo not given), the GI50 was 7.13 µM in the assay with HCT-15; 18.4 µM (inactive) with NCI-H460; 7.14 µM (inactive) with M14; 13.9 µM (inactive) in the assay with PC-3; 13 µM (inactive) in the assay with DU-145; 16.4 µM (inactive) with SF-295. Besides, the GI50 with TK-10 is 5.38 µM (inactive); with UACC-62, 17.6 µM (inactive); with COLO 205 it was 3.59 µM (inactive); in the assay with SW-620 it was 2.01 µM (inactive); in the assay on T47D it was 0.536 µM (active); in the assay on EKVX, 12.9 µM (inactive). Moreover, the GI50 in the assay with SF-268 is 17.4 µM (inactive); in the assay with OVCAR-4, 9.84 µM (inactive); in the assay on SNB-19 it was 20.7 µM (inactive); in the assay on HT-29, 5.74 µM (inactive); in the assay on SK-MEL-5, 16.4 µM (inactive); in the assay on OVCAR-8, 7.14 µM (inactive). Also, in the assay with A498, the GI50 was 23.3 µM (inactive).

`Cc1cc(C)nc(NS(=O)(=O)c2ccc(Nc3c4ccccc4nc4c(C(=O)NNCCO)cccc34)cc2)n1`: the GI50 with HCT-15 was greater than 100 µM; with NCI-H460, 15.7 µM (inactive); in the assay with M14, > 100 µM (inactive); with PC-3, > 100 µM (inactive); in the assay with DU-145, > 100 µM (inactive); with SF-295, > 100 µM (inactive). The GI50 in the assay on TK-10 was > 100 µM (inactive); in the assay with UACC-62 it was 13.7 µM (inactive); with COLO 205, > 100 µM (inactive); in the assay with SW-620, > 100 µM (inactive); in the assay on T47D, 5.06 µM (inactive); with EKVX, > 100 µM (inactive). Also, the GI50 in the assay with SF-268, in the assay with OVCAR-4, in the assay with SNB-19, with HT-29, with SK-MEL-5 and with OVCAR-8 was > 100 µM (inactive) in each case. Also, in the assay on A498, the GI50 was > 100 µM (inactive).

Consider `O=c1ssc(Cl)c1Nc1c(Cl)ssc1=O`, for which the GI50 in the assay with HCT-15 was 18.6 µM; with NCI-H460, 18.8 µM (inactive); in the assay on M14, 19.2 µM (inactive); in the assay with PC-3 it was 18.9 µM (inactive); in the assay with DU-145, 17.3 µM (inactive); in the assay with SF-295 it was 41.4 µM (inactive). The GI50 was 19 µM (inactive) in the assay on TK-10; > 40.7 µM (inactive) in the assay with UACC-62; 11.3 µM (inactive) in the assay with COLO 205; 15.8 µM (inactive) in the assay with SW-620; 9.2 µM (inactive) in the assay with T47D; 20.6 µM (inactive) in the assay on EKVX. Also, the GI50 in the assay with SF-268 is 23.1 µM (inactive); in the assay on OVCAR-4 it was 18.2 µM (inactive); with SNB-19, 25.7 µM (inactive); in the assay with HT-29 it was 22.4 µM (inactive); in the assay with SK-MEL-5, 17 µM (inactive); in the assay with OVCAR-8, 21.5 µM (inactive). Moreover, the GI50 in the assay with A498 was 17.8 µM (inactive).

As to `C/C=C/C(O)P(=O)(OC)OC` (stereo not given), the GI50 was 0.309 µM in the assay on HCT-15; 0.272 µM (active) in the assay with NCI-H460; 0.207 µM (active) in the assay with M14; 0.407 µM (active) in the assay on PC-3; 0.34 µM (active) with DU-145; 0.366 µM (active) in the assay on SF-295. In addition, the GI50 with TK-10 was 0.366 µM (active); in the assay with UACC-62 it was 0.27 µM (active); with COLO 205, 0.184 µM (active); with SW-620, 0.277 µM (active); with T47D, 0.334 µM (active); in the assay with EKVX, 0.308 µM (active). Moreover, the GI50 with SF-268 is 0.263 µM (active); in the assay with OVCAR-4, 0.335 µM (active); in the assay with SNB-19 it was 0.436 µM (active); in the assay on HT-29 it was 0.33 µM (active); in the assay with SK-MEL-5, 0.196 µM (active); in the assay on OVCAR-8, 0.451 µM (active). The GI50 with A498 is 0.316 µM (active).

As to `OCCN(CCO)c1ccc2c(C(F)(F)F)cc(C(F)(F)F)nc2n1`, the GI50 with HCT-15 was greater than 86.5 µM; with NCI-H460, > 100 µM (inactive); in the assay with M14 it was > 100 µM (inactive); with PC-3, > 100 µM (inactive); in the assay on DU-145, > 100 µM (inactive); in the assay on SF-295, > 100 µM (inactive). Moreover, the GI50 in the assay with TK-10, in the assay with UACC-62, with COLO 205, with SW-620, with T47D and in the assay with EKVX was > 100 µM (inactive) throughout. Moreover, the GI50 in the assay on SF-268 was > 100 µM (inactive); in the assay with OVCAR-4, > 100 µM (inactive); in the assay on SNB-19, > 100 µM (inactive); in the assay with HT-29 it was > 100 µM (inactive); in the assay on SK-MEL-5, 95.7 µM (inactive); in the assay with OVCAR-8, > 77.6 µM (inactive). Also, the GI50 in the assay with A498 was 48.5 µM (inactive).

For `Cc1cccc(/C=N/NC(=S)NCc2ccccn2)n1`, the GI50 is 23.7 µM in the assay on HCT-15; 15.9 µM (inactive) in the assay on NCI-H460; 18.6 µM (inactive) in the assay with M14; 18.5 µM (inactive) with PC-3; 15.1 µM (inactive) with DU-145; 27.5 µM (inactive) in the assay with SF-295. Besides, the GI50 was 99.3 µM (inactive) in the assay with TK-10; 17.7 µM (inactive) with UACC-62; 36.1 µM (inactive) in the assay with COLO 205; 22.1 µM (inactive) in the assay on SW-620; 31 µM (inactive) with T47D; 37.2 µM (inactive) in the assay with EKVX. In addition, the GI50 with SF-268 was 20 µM (inactive); in the assay on OVCAR-4 it was > 100 µM (inactive); in the assay on SNB-19, 47.5 µM (inactive); with HT-29, 27.7 µM (inactive); with SK-MEL-5, 17.7 µM (inactive); in the assay on OVCAR-8, 32.1 µM (inactive). Moreover, in the assay on A498, the GI50 was 49.2 µM (inactive).

`O=C1C(Cl)C(c2cccc([N+](=O)[O-])c2)N1n1cnc2ccccc2c1=O` (stereo not given): the GI50 in the assay on HCT-15 is greater than 100 µM; in the assay on NCI-H460 it was 50.9 µM (inactive); with M14 it was > 100 µM (inactive); with SF-295, > 100 µM (inactive); in the assay on TK-10, > 100 µM (inactive); in the assay with UACC-62 it was > 100 µM (inactive). Besides, the GI50 is > 100 µM (inactive) in the assay on COLO 205; > 100 µM (inactive) in the assay on SW-620; > 100 µM (inactive) with EKVX; > 100 µM (inactive) in the assay on SF-268; > 100 µM (inactive) in the assay with M19-MEL; 54.6 µM (inactive) in the assay with OVCAR-4. The GI50 in the assay on SNB-19, in the assay on HT-29, in the assay on SK-MEL-5 and in the assay on OVCAR-8 was > 100 µM (inactive) in each case.

For `C[N+]1(CCN=C=NC2CCCCC2)CCOCC1`, the GI50 in the assay on HCT-15 is greater than 100 µM; with NCI-H460 it was > 100 µM (inactive); in the assay with M14 it was > 100 µM (inactive); in the assay with PC-3 it was > 100 µM (inactive); in the assay with DU-145, > 100 µM (inactive); with SF-295, > 100 µM (inactive). Also, the GI50 in the assay with TK-10, in the assay with UACC-62, with COLO 205, in the assay with SW-620, in the assay on T47D and in the assay with EKVX was > 100 µM (inactive) each time. Besides, the GI50 with SF-268, in the assay with OVCAR-4, in the assay with SNB-19, in the assay on HT-29, in the assay on SK-MEL-5 and in the assay with OVCAR-8 was > 100 µM (inactive) each time. Moreover, the GI50 in the assay on A498 was > 100 µM (inactive).
